Read-outs that look alike come from different tables or passages of the source.
Assays:
LAT1 [1] = molecular target: T1, LAT1 (Homo sapiens, UniProt Q01650); settings: cited from earlier work
Target sequence in this assay (Q01650 whole entry, species assumed): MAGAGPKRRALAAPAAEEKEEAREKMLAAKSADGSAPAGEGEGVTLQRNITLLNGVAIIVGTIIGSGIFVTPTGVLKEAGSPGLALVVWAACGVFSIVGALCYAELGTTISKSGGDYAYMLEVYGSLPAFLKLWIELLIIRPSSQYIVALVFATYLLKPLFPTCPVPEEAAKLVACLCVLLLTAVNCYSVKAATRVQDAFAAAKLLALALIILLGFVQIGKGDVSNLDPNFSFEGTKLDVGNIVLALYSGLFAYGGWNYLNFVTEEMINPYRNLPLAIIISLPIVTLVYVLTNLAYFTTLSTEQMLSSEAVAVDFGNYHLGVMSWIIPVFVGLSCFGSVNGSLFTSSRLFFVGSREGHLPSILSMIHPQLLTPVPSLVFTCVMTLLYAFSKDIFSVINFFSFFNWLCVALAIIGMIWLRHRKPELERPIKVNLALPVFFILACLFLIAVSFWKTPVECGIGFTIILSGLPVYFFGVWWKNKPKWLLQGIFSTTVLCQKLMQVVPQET
Target sequence in this assay (P08195 102-630 partner, species assumed): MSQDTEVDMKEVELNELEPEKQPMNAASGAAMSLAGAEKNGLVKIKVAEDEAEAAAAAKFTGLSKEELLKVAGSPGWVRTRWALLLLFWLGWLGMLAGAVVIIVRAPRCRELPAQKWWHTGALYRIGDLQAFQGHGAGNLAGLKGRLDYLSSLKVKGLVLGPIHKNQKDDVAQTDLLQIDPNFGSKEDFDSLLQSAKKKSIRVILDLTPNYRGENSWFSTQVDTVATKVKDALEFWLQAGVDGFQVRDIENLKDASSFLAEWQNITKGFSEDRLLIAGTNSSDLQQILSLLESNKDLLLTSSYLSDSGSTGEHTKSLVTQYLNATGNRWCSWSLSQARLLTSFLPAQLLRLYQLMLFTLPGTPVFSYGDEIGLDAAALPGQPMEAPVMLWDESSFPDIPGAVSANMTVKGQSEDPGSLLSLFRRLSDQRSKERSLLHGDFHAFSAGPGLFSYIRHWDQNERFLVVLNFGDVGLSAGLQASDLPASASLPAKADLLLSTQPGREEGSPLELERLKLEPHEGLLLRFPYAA

hLAT1 [2] = molecular target: T2, hLAT1 (Homo sapiens, UniProt P08195+Q01650); experiment: LAT1 competition uptake assay in HEK-TREx-LAT1-4F2hc cells with 3H-gabapentin; assay type: cell-based
T2 construct: expressed in transfected cells
Experimental: The plates were incubated at room temperature for 15 minutes.

LAT1 [3] = molecular target: T1, LAT1; experiment: Oocyte direct uptake assay (LC-MS-MS), oocytes expressing hLAT1 and 4F2hc; assay type: cell-based; set-up: expressed in transfected cells; host or cells: Xenopus oocytes injected with cRNA
Text: To assess transport function of a specific transporter protein, it can be desirable to clone the cDNA and express the protein in cells that have low endogenous transport activity. Human LAT1 was cloned by PCR, fully sequenced, and subcloned into plasmids that can be used for expression in mammalian cells or Xenopus oocytes. The co-subunit required for LAT1 function, 4F2HC (Genbank accession AB018010), was also cloned and sequenced. Unless otherwise noted, 4F2HC was also co-expressed in each heterologous system described in the example. […] For expression in Xenopus oocytes, in vitro LAT1 and 4F2HC cRNA was prepared and injected into defoliculated oocytes.
To measure directly the uptake of possible substrates, an oocyte uptake assay in which compounds are measured by mass spectroscopy was developed. To illustrate this approach, uptake assays of gabapentin and L-dopa were performed. Oocytes used in this experiment were injected with LAT1 cRNA and incubated at 16-18° C. until maximal transporter expression was reached. Oocytes from the same batch, which were not injected with cRNA, were used in the experiment to serve as a control. […] Following the incubation, the pools of oocytes were washed 4 times with 0.5% BSA ND96 buffer and separated into 2 oocyte subpools containing 4 oocytes each. Subpools were homogenized in 150 μl of ice cold 80% MeOH/H2O, and lysed manually with a P200 pipettor. Lysates were vortexed briefly before being spun in a 4° C. tabletop centrifuge at 13.2 krpm for 15 minutes. Approximately 110 μl of lysate was removed from the eppendorf tubes and placed in a 96-well plate. Lysates were analyzed for gabapentin and L-dopa by liquid chromatography-mass spectroscopy.
Samples were analyzed by LC-MS-MS as follows. […] Analyte fragmentation peaks were integrated using Analyst 1.2 quantitation software, and concentrations were calculated using a calibration curve of signals produced by known concentrations of the compound.
Target sequence in this assay (Q01650 whole entry): as the sequence (Q01650 whole entry, species assumed) above
Target sequence in this assay (as listed by the source partner): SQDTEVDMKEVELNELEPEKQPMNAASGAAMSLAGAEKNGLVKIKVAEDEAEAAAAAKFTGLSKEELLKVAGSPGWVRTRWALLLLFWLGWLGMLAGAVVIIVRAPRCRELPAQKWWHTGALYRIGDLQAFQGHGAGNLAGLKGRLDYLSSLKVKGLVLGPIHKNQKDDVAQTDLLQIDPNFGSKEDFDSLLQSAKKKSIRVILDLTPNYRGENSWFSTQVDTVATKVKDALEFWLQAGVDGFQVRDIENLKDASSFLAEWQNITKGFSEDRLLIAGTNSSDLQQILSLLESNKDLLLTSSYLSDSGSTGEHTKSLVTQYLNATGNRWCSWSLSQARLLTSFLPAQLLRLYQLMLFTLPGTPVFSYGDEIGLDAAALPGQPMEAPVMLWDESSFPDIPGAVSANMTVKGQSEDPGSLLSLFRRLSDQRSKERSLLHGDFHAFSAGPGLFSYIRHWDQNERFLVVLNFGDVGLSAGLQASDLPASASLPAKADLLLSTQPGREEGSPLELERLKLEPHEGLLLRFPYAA

hLAT1 [4] = molecular target: T2, hLAT1; experiment: LAT1 direct uptake assay in HEK-TREx-LAT1-4F2hc cells (LC-MS-MS); assay type: cell-based; settings: read-out: Km or IC50, Direct Uptake
Experimental: Four concentrations (bracketing the affinity as measured by competition assays) per compound were routinely tested.
Typically, four concentrations bracketing the IC50 were tested. The highest test concentration for each compound was made in an eppendorf tube and diluted into HBSS. The samples were robustly vortexed and centrifuged for 10 minutes at 13,200 rpm to spin down any precipitate. […] Three additional 2-fold dilutions were made in the subsequent rows (B-D or […]) in HBSS.
Alternatively, cells were washed manually with equivalent volumes using a multichannel pipettor.
The plate was incubated at room temperature for 10 minutes.
120 μl of the cell extract was removed from each well and transferred to a fresh 96-well v-bottom polypropylene plate. […] 10 μl of the 50 μM propranolol solution was added to each well of a fresh 96-well plate (a plate amenable for sampling in the LC-MS-MS).

LAT1 [5] = molecular target: T1, LAT1; experiment: KB cell direct uptake assay (LC-MS-MS); settings: read-out: Km or IC50, Direct Uptake; KB cells; 5 min
LAT1 transporter = molecular target: T3, LAT1 transporter (Homo sapiens, UniProt Q01650); experiment: KB cell competition assay with 14C-gabapentin; assay type: cell-based
T3 construct: KB cells endogenously expressing LAT1; endogenous in cells; host or cells: KB cells
Text: To increase the throughput of LAT1 compound screening, a mammalian cell assay was developed. Because LAT1 mRNA is expressed at detectable levels in many cancer cell lines, over 20 human cell lines were screened for LAT1 expression using quantitative PCR. Cell lines included A498, A549, ASPC, CALU, CAPAN, DLD, DU145, H69AR, HCT8, HEK, HELA, HEPG2, HL60, JAR, JUR, KB, LOVO, MCF7, PANC1, PC3, and SW48.
To determine whether a compound interacts with the LAT1 transporter, a competition-binding assay was developed. The assay measures how different concentrations of a test compound block the uptake of a radiolabeled substrates such as ^14C-L-dopa or ^14C-gabapentin. The half-maximal inhibitory concentration (IC50) for inhibition of transport of a substrate by a test compound is an indication of the affinity of the test compound for the LAT1 transporter. Competition binding studies were performed as follows. KB cells were plated in 96-well plates at 100,000 cells/well and incubated for 24 hours at 37° C. Radiolabeled ^14C-gabapentin (˜50,000 cpm/well) was added to each well in the presence and absence of various concentrations of test compound in duplicate or triplicate. Plates were incubated at room temperature for 20 min. Excess radiolabeled substrate was removed and cells were washed three times with a 96-well plate washer with cold assay buffer. Scintillation fluid was added to each well, the plates were sealed and counted in a 96-well plate-based scintillation counter. Data were graphed and analyzed using non-linear regression analysis with Prism Software (GraphPad, Inc., San Diego, Calif.).

LAT1 [6] = molecular target: T1, LAT1; settings: Literature; LAT1-expressing oocytes; cited from earlier work
Target sequence in this assay (Q01650 whole entry, species assumed): as the sequence (Q01650 whole entry, species assumed) above
Target sequence in this assay (P08195 102-630 partner, species assumed): as the sequence (P08195 102-630 partner, species assumed) above

LAT1 [7] = molecular target: T1, LAT1; experiment: Radiolabel uptake into Xenopus oocytes expressing LAT1 and 4F2HC; assay type: cell-based; set-up: expressed in transfected cells; host or cells: Xenopus oocytes injected with cRNA; settings: FIG. 2
PgP = PgP (Homo sapiens, UniProt P08183); experiment: Cellular transwell monolayer efflux assay, MDCK cells with TREx-PgP
[8] = own data, read-out: Km or IC50, Direct Uptake
[9] = KB cells, read-out: Km or IC50, Competition (14C-GP)
[10] = 2.5 nM 3H-vinblastine, 250 μM verapamil

T3 sequence (Q01650 whole entry): as the sequence (Q01650 whole entry, species assumed) above
T3 sequence (P08195 102-630 partner): as the sequence (P08195 102-630 partner, species assumed) above
T2 sequence (Q01650+P08195 fused): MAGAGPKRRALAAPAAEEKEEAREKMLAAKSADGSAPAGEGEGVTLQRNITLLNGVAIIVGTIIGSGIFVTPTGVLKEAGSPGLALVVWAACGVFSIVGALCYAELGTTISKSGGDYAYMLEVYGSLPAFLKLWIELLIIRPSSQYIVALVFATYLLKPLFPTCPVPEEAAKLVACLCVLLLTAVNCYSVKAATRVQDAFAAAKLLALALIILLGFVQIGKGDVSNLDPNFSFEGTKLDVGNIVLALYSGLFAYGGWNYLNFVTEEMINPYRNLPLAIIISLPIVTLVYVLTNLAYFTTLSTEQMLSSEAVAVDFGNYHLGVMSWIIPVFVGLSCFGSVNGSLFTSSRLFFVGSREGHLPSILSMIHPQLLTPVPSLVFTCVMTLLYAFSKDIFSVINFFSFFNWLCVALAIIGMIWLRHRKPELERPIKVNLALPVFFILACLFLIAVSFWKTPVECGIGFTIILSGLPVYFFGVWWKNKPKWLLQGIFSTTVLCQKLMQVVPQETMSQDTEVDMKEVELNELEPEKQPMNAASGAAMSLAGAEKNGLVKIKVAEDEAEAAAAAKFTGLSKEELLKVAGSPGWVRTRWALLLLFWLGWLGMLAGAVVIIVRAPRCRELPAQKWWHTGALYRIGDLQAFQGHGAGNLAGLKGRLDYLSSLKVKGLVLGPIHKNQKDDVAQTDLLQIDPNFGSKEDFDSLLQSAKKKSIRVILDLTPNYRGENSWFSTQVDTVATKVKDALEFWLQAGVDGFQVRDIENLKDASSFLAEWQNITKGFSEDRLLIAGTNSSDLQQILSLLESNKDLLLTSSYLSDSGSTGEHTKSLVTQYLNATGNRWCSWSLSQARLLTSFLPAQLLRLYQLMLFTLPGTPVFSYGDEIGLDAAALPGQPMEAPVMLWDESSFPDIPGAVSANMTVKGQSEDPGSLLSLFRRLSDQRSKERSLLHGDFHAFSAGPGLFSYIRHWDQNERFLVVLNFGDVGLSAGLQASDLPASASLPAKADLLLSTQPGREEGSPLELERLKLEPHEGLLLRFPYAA
Sequence of PgP (P08183 whole entry): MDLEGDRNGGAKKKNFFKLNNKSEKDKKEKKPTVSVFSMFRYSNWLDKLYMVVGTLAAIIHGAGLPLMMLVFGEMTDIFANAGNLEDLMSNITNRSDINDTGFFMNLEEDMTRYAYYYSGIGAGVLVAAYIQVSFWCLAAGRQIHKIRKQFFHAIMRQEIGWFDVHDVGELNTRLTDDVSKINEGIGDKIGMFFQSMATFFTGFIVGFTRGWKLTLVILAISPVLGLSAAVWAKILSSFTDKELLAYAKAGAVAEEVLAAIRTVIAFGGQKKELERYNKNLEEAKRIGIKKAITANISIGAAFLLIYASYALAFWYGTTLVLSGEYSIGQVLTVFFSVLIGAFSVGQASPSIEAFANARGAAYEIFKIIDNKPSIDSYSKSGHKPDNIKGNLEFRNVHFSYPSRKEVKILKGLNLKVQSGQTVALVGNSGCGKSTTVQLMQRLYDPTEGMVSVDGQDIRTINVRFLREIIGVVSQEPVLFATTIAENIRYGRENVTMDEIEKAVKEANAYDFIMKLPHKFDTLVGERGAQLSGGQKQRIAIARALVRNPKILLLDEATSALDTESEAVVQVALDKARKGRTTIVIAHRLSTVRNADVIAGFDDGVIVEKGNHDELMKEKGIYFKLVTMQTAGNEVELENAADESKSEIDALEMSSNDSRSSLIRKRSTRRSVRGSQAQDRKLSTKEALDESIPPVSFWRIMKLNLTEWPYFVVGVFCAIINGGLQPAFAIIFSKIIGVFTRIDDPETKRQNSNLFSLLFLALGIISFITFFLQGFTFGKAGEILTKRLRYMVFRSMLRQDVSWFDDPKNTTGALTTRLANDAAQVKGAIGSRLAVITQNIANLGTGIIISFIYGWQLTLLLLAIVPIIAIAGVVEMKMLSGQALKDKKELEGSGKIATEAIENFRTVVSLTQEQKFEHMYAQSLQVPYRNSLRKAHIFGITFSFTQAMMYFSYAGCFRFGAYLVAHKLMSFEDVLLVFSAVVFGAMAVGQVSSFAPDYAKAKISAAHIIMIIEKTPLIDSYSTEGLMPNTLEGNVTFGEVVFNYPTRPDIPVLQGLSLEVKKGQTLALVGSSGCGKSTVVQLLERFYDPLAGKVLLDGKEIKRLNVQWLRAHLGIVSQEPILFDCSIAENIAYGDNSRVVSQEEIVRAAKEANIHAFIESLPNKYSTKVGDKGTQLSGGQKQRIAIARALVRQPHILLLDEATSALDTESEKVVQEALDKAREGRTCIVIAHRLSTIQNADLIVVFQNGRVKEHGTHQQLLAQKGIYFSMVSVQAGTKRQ

## NCC(CC(=O)O)c1ccc(Cl)cc1 (stereo not shown) [Baclofen]
LAT1 [1]
  Reported Affinity for LAT1: 0.25 mM

## NC1(C(=O)O)CC2CCC1C2 (stereo not shown) [Bicyclohexane amino acid]
LAT1 [1]
  Reported Affinity for LAT1: 0.18 mM

## NCC1(CC(=O)O)CCCCC1 [Gabapentin]
hLAT1 [2]
  IC50: 400 µM
LAT1 [3]; read-out: Km or IC50, Direct Uptake, own data
  Km: 140 µM
hLAT1 [4]
  Km: 500 µM
LAT1 [5]
  Km: 160 µM
LAT1 [1]
  Reported Affinity for LAT1: 0.15 mM
LAT1 transporter
  IC50: 210 µM
LAT1 [6]
  Km or IC50, Radiolabel Uptake or Competition: 340 µM

## N[C@@H](Cc1ccc(O)c(O)c1)C(=O)O [L-dopa]
LAT1 [3]; [8]
  Km: 66 µM
LAT1 [7]
  3H-L-dopa uptake into oocytes expressing LAT1 and 4F2HC versus noninjected controls: higher levels
LAT1 transporter; [9]
  IC50: 190 µM

## CC(C)C[C@H](N)C(=O)O [Leucine]
LAT1 [1]
  Reported Affinity for LAT1: 0.22 mM

## CSCC[C@H](N)C(=O)O [Methionine]
LAT1 [1]
  Reported Affinity for LAT1: 0.25 mM

## N[C@@H](Cc1ccccc1)C(=O)O [Phenylalanine]
hLAT1 [2]; HEK-LAT1 cells, read-out: Km or IC50, Competition (3H-GP)
  IC50: 160 µM
LAT1 [3]; [8]
  Km: 25 µM
hLAT1 [4]
  Km: 140 µM
LAT1 [5]
  Km: 14.5 µM
LAT1 [1]
  Reported Affinity for LAT1: 0.025 mM
LAT1 transporter; [9]
  IC50: 100 µM
LAT1 [6]
  Km or IC50, Radiolabel Uptake or Competition: 12.5 to 14.2 µM

## N[C@@H](Cc1c[nH]c2ccccc12)C(=O)O [Tryptophan]
LAT1 [1]
  Reported Affinity for LAT1: 0.35 mM

## CC[C@]1(O)C[C@@H]2CN(CCc3c([nH]c4ccccc34)[C@@](C(=O)OC)(c3cc4c(cc3OC)N(C)[C@H]3[C@@](O)(C(=O)OC)[C@H](OC(C)=O)[C@]5(CC)C=CCN6CC[C@]43[C@@H]65)C2)C1 [vinblastine]
PgP
  PgP substrate status: is a substrate of PgP
PgP; [10]
  Apical to basolateral transport in the presence of verapamil: strongly increased
  Basolateral to apical transport in the presence of verapamil: strongly decreased

Reference: patent publication US7462459B2, “LAT1 transporters expressed in blood brain barrier cells” (XenoPort, Inc., priority 2004, dated 2008)
